The supplement of paper PMC11208160

Experiment: recombinant UMI read abundance after kanamycin selection (control-corrected) (log10(CPM+1)); higher = more efficient recombination; extreme values may be limits of the assay; sequences stand for … in AGTGCAGAGAAAATCGGCCAGTTTTCTCTGCCTGCAGTCCGCATGCCGTGGGACCCCTTGGGTTCTAACCTGTTGCCTAGATTTATGCAGCGGACTGCCTTTCTCCCAAAGTGATAAACCGG…AGGTTGGTTTCACT; site = the 11-nt donor
In short: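 For the IS621 bridge recombinase, a pooled Escherichia coli screen tested donor and donor-binding-loop pairs. Cells received the pair library together with a target plasmid encoding a fixed target and T7-inducible recombinase, then went onto IPTG (0.07 mM) plus kanamycin or unselected plates in duplicate. After PCR across the donor–target junction and sequencing, recombinant UMI counts were normalized to CPM, averaged, and scaled by control-derived factors. Each value is given as log10(CPM+1).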
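Note: IS621 bridge recombinase in Escherichia coli cells against a fixed T5 target plasmid.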

| Sequence | recombinant UMI read abundance (log10) |
| --- | --- |
| CTTGTATCATGGACCGGTTTTCCCGGTAATCCGTATTTGGC (site CTTGTATCTGC) | 0.486 |
| CTTTAAACATGGACCGGTTTTCCCGGTAATCCGTATTTGTC (site CTTTAAACTGA) | 0 |
| CTTTTCTCATGGACCGGTTTTCCCGGTAATCCGTATTTGTA (site CTTATCTCTTA) | 0 |
| CTTTTCTCATGGACCGGTTTTCCCGGTAATCCGTATTTGTA (site CTTCTCTCTTA) | 0.274 |
| CTTTTCTCATGGACCGGTTTTCCCGGTAATCCGTATTTGTA (site CTTGTCTCTTA) | 0.00384 |
| CTTTTCTCATGGACCGGTTTTCCCGGTAATCCGTATTTGTA (site CTTTTCTCTTA) | 0.0916 |
| GAAACTACATGGACCGGTTTTCCCGGTAATCCGTATTTGCC (site GAAACTACTGG) | 1.88 |
| GAACACCCATGGACCGGTTTTCCCGGTAATCCGTATTTGGA (site GAACACCCTTC) | 0.00915 |
| GAACATACATGGACCGGTTTTCCCGGTAATCCGTATTTGAA (site GAACATACTTT) | 1.69 |
| GAACATTCATGGACCGGTTTTCCCGGTAATCCGTATTTGTT (site GAAAATTCTAA) | 0 |
| GAACATTCATGGACCGGTTTTCCCGGTAATCCGTATTTGTT (site GAACATTCTAA) | 2.03 |
| GAACATTCATGGACCGGTTTTCCCGGTAATCCGTATTTGTT (site GAAGATTCTAA) | 0 |
| GAACATTCATGGACCGGTTTTCCCGGTAATCCGTATTTGTT (site GAATATTCTAA) | 0.0114 |
| GAACCGACATGGACCGGTTTTCCCGGTAATCCGTATTTGGT (site GAACCGACTAC) | 0.724 |
| GAACGGCCATGGACCGGTTTTCCCGGTAATCCGTATTTGCA (site GAAAGGCCTTG) | 0 |
| GAACGGCCATGGACCGGTTTTCCCGGTAATCCGTATTTGCA (site GAACGGCCTTG) | 0.812 |
| GAACGGCCATGGACCGGTTTTCCCGGTAATCCGTATTTGCA (site GAAGGGCCTTG) | 0 |
| GAACGGCCATGGACCGGTTTTCCCGGTAATCCGTATTTGCA (site GAATGGCCTTG) | 0 |
| GAACTCACATGGACCGGTTTTCCCGGTAATCCGTATTTGCT (site GAACTCACTAG) | 2.53 |

| Sequence | recombinant UMI read abundance (log10) |
| --- | --- |
| GAACTGGCATGGACCGGTTTTCCCGGTAATCCGTATTTGCG (site GAACTGGCTCG) | 0.715 |
| GAACTTACATGGACCGGTTTTCCCGGTAATCCGTATTTGCG (site GAACTTACTCG) | 1.85 |
| GAAGACTCATGGACCGGTTTTCCCGGTAATCCGTATTTGTT (site GAAGAATCTAA) | 0.423 |
| GAAGACTCATGGACCGGTTTTCCCGGTAATCCGTATTTGTT (site GAAGACTCTAA) | 2.84 |
| GAAGACTCATGGACCGGTTTTCCCGGTAATCCGTATTTGTT (site GAAGAGTCTAA) | 0.00964 |
| GAAGACTCATGGACCGGTTTTCCCGGTAATCCGTATTTGTT (site GAAGATTCTAA) | 0.506 |
| GAAGGAGCATGGACCGGTTTTCCCGGTAATCCGTATTTGTA (site GAAGGAGCTTA) | 2.33 |
| GAAGGGCCATGGACCGGTTTTCCCGGTAATCCGTATTTGCA (site GAAAGGCCTTG) | 0 |
| GAAGGGCCATGGACCGGTTTTCCCGGTAATCCGTATTTGCA (site GAACGGCCTTG) | 0 |
| GAAGGGCCATGGACCGGTTTTCCCGGTAATCCGTATTTGCA (site GAAGGGCCTTG) | 0 |
| GAAGGGCCATGGACCGGTTTTCCCGGTAATCCGTATTTGCA (site GAATGGCCTTG) | 0 |
| GAAGGTTCATGGACCGGTTTTCCCGGTAATCCGTATTTGTT (site GAAGATTCTAA) | 1.32 |
| GAAGGTTCATGGACCGGTTTTCCCGGTAATCCGTATTTGTT (site GAAGCTTCTAA) | 0.00355 |
| GAAGGTTCATGGACCGGTTTTCCCGGTAATCCGTATTTGTT (site GAAGGTTCTAA) | 2.35 |
| GAAGGTTCATGGACCGGTTTTCCCGGTAATCCGTATTTGTT (site GAAGTTTCTAA) | 0 |
| GAAGTCACATGGACCGGTTTTCCCGGTAATCCGTATTTGGG (site AAAGTCACTCC) | 0.11 |
| GAAGTCACATGGACCGGTTTTCCCGGTAATCCGTATTTGGG (site CAAGTCACTCC) | 0.0174 |
| GAAGTCACATGGACCGGTTTTCCCGGTAATCCGTATTTGGG (site GAAGTCACTCC) | 0.412 |
| GAAGTCACATGGACCGGTTTTCCCGGTAATCCGTATTTGGG (site TAAGTCACTCC) | 0.221 |

| Sequence | recombinant UMI read abundance (log10) |
| --- | --- |
| GAAGTGACATGGACCGGTTTTCCCGGTAATCCGTATTTGCG (site GAAGTGACTCG) | 2.14 |
| GAATAAGCATGGACCGGTTTTCCCGGTAATCCGTATTTGTG (site GAATAAGCTCA) | 1.99 |
| GAATATCCATGGACCGGTTTTCCCGGTAATCCGTATTTGCT (site GAATATCCTAG) | 1.3 |
| GAATATCCATGGACCGGTTTTCCCGGTAATCCGTATTTGCT (site GACTATCCTAG) | 0 |
| GAATATCCATGGACCGGTTTTCCCGGTAATCCGTATTTGCT (site GAGTATCCTAG) | 0 |
| GAATATCCATGGACCGGTTTTCCCGGTAATCCGTATTTGCT (site GATTATCCTAG) | 0 |
| GAATCATCATGGACCGGTTTTCCCGGTAATCCGTATTTGCT (site CGATCATCTAG) | 1.88 |
| GAATCATCATGGACCGGTTTTCCCGGTAATCCGTATTTGCT (site GAATCATCTAG) | 1.95 |
| GAATCGTCATGGACCGGTTTTCCCGGTAATCCGTATTTGCA (site GAATCGTCTTG) | 2.71 |
| GAATCTCCATGGACCGGTTTTCCCGGTAATCCGTATTTGAA (site GAATCTCCTTT) | 0.611 |
| GAATGCACATGGACCGGTTTTCCCGGTAATCCGTATTTGTA (site GAATGCACTTA) | 1.87 |
| GAATGCACATGGACCGGTTTTCCCGGTAATCCGTATTTGTA (site GCATGCACTTA) | 0.691 |
| GAATGCACATGGACCGGTTTTCCCGGTAATCCGTATTTGTA (site GGATGCACTTA) | 0.585 |
| GAATGCACATGGACCGGTTTTCCCGGTAATCCGTATTTGTA (site GTATGCACTTA) | 0.36 |
| GAATGGACATGGACCGGTTTTCCCGGTAATCCGTATTTGAC (site GAATGGACTGT) | 2.81 |
| GAATGGACATGGACCGGTTTTCCCGGTAATCCGTATTTGAC (site GACTGGACTGT) | 0 |
| GAATGGACATGGACCGGTTTTCCCGGTAATCCGTATTTGAC (site GAGTGGACTGT) | 0 |
| GAATGGACATGGACCGGTTTTCCCGGTAATCCGTATTTGAC (site GATTGGACTGT) | 0.743 |
| GAATGGACATGGACCGGTTTTCCCGGTAATCCGTATTTGCA (site GAATGGACTTG) | 2.46 |
